From the NIST ThermoML archive (doi:10.1021/je700193w)

Experiment: xn = mol fraction of the nth substance listed
Details: 101 kPa, Liquid

C=C1CCC2CC1C2(C)C (stereo not drawn) [β-pinene] + CC(C)CO
Details	mass density [kg/m3]	speed of sound [m/s]
298.15 K, x1 = 0.201	–	1214.9
298.15 K, x1 = 0.2969	826.03	1225.1
298.15 K, x1 = 0.4002	833.57	1235.2
298.15 K, x1 = 0.4896	839.51	1243.9
298.15 K, x1 = 0.5856	845.33	1252.2
298.15 K, x1 = 0.6785	850.56	1260.4
298.15 K, x1 = 0.7841	856.21	1270.1
298.15 K, x1 = 0.8875	861.41	1280.4
298.15 K, x1 = 0.933	863.62	1285.2
303.15 K, x1 = 0.0505	799.78	1181.7
303.15 K, x1 = 0.1044	805.23	1188.4
303.15 K, x1 = 0.2023	814.23	1200.2
303.15 K, x1 = 0.2999	822.12	1210.6
303.15 K, x1 = 0.3929	828.94	1219.2
303.15 K, x1 = 0.4877	835.22	1227.7
303.15 K, x1 = 0.6108	842.66	1238.3
303.15 K, x1 = 0.6829	846.72	1244.6
303.15 K, x1 = 0.7908	852.45	1254.4
303.15 K, x1 = 0.8846	857.17	1263.9
303.15 K, x1 = 0.9299	859.39	1268.9
313.15 K, x1 = 0.0401	790.45	1143.3
313.15 K, x1 = 0.1042	796.91	1150.9
313.15 K, x1 = 0.2004	805.6	1160.9
313.15 K, x1 = 0.3012	813.68	1170.6
313.15 K, x1 = 0.3902	820.11	1178.2
313.15 K, x1 = 0.51	827.98	1187.7
313.15 K, x1 = 0.6202	834.55	1196.8
313.15 K, x1 = 0.6847	838.19	1202.2
313.15 K, x1 = 0.7768	843.06	1210.2
313.15 K, x1 = 0.8969	849.21	1222.1
313.15 K, x1 = 0.9601	852.46	1230.5
323.15 K, x1 = 0.0547	783.66	1114.2
323.15 K, x1 = 0.1021	788.33	1119.3
323.15 K, x1 = 0.207	797.66	1129.4
323.15 K, x1 = 0.2989	804.85	1136.8
323.15 K, x1 = 0.4024	812.32	1144.6
323.15 K, x1 = 0.5041	818.98	1152.7
323.15 K, x1 = 0.6074	825.2	1160.6
323.15 K, x1 = 0.6965	830.27	1167.7
323.15 K, x1 = 0.8063	836.02	1177.1
323.15 K, x1 = 0.8887	840.5	1184.7
323.15 K, x1 = 0.9618	844.41	1192.6
